Our source for the MIC values is ChEMBL document CHEMBL3297728, “Synthesis and antituberculosis activity of novel 5-styryl-4-(hetero)aryl-pyrimidines via combination of the Pd-catalyzed Suzuki cross-coupling and S(N)(H) reactions” (Bioorg Med Chem Lett, 2014).

Structures are written as SMILES. Values after ≈ are worked out from the molar mass of the structure shown.

The test system of this test is Mycobacterium tuberculosis. The experiment in a line: Antimycobacterial activity against rifampin- and Isoniazid- resistant Mycobacterium tuberculosis Beijing harboring Ser 531-Leu 315 rpoB mutant and Ser-Thr katG mutant after 10 days by microbroth dilution method. Type of test: functional.
Take `Brc1cncnc1-c1cccs1`: the MIC was 0.7 µg/mL (≈ 2.9 µM).

As to `Brc1cncnc1-c1ccco1`, the MIC is 1.5 µg/mL (≈ 6.67 µM).

`C(=C\c1cncnc1-c1ccc(-c2cccs2)s1)/c1ccc(-c2ccccc2)cc1` registered an MIC of 1.5 µg/mL (≈ 3.55 µM).

In general, MIC refers to the least concentration at which growth counts as inhibited. Low values mean inhibition by little substance, high ones a need for much substance.
